Source: the supplement of paper PMC10307832

How the values were obtained:
Assay in all cases: relative viability (nuclei count vs DMSO), 5 days (fraction); higher = more cells survive
[1] = compound: COc1cc2ncn(-c3cc(OCc4ccccc4C(F)(F)F)c(C(N)=O)s3)c2cc1OC + CC1(C)CCC(c2ccc(Cl)cc2)=C(CN2CCN(c3ccc(C(=O)NS(=O)(=O)c4ccc(N[C@H](CCN5CCOCC5)CSc5ccccc5)c(S(=O)(=O)C(F)(F)F)c4)cc3)CC2)C1 [Navitoclax] (partner 0.5 µM)
How it was run: (§1)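 Cells from lung cancer lines were seeded into 1536-well plates and, one day later, dosed by pin tool. Treatments were either a single drug or a fixed dose of an anchor drug with five library-drug doses (not always all listed) in √10 steps. After 5 days, nuclei were stained in a one-step fixation (final 0.05% Triton X-100, 1% formaldehyde, 1 ug/ml Hoechst) and counted on 4× images, and relative viability is the treated-to-vehicle nuclei ratio, as the median of duplicate plates.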

[2] = compound: COc1cc2ncn(-c3cc(OCc4ccccc4C(F)(F)F)c(C(N)=O)s3)c2cc1OC + C[C@@H](Oc1cc(-c2cnn(C3CCNCC3)c2)cnc1N)c1c(Cl)ccc(F)c1Cl [Crizotinib] (partner 1 µM)
How it was run: as §1

[3] = compound: COc1cc2ncn(-c3cc(OCc4ccccc4C(F)(F)F)c(C(N)=O)s3)c2cc1OC + Cc1nc(Nc2ncc(C(=O)Nc3c(C)cccc3Cl)s2)cc(N2CCN(CCO)CC2)n1 [Dasatinib] (partner 0.075 µM)
How it was run: as §1

[4] = compound: COc1cc2ncn(-c3cc(OCc4ccccc4C(F)(F)F)c(C(N)=O)s3)c2cc1OC + O=C(CCCCCCC(=O)Nc1ccccc1)NO [Vorinostat] (partner 1 µM)
How it was run: as §1

| Cell Line | relative viability ([1]; first compound 0.05 µM) | relative viability ([1]; first compound 0.1581 µM) | relative viability ([1]; first compound 0.5 µM) | relative viability ([1]; first compound 1.581 µM) | relative viability ([1]; first compound 5 µM) | relative viability ([2]; first compound 0.05 µM) | relative viability ([2]; first compound 0.1581 µM) | relative viability ([2]; first compound 0.5 µM) | relative viability ([2]; first compound 1.581 µM) | relative viability ([2]; first compound 5 µM) | relative viability ([3]; first compound 0.05 µM) | relative viability ([3]; first compound 0.1581 µM) | relative viability ([3]; first compound 0.5 µM) | relative viability ([3]; first compound 5 µM) | relative viability ([4]; first compound 0.05 µM) | relative viability ([4]; first compound 0.1581 µM) | relative viability ([4]; first compound 0.5 µM) | relative viability ([4]; first compound 1.581 µM) | relative viability ([4]; first compound 5 µM) | relative viability ([3]; first compound 1.581 µM) |
| --- | --- | --- | --- | --- | --- | --- | --- | --- | --- | --- | --- | --- | --- | --- | --- | --- | --- | --- | --- | --- |
| H3255 | 0.558 | 0.314 | 0.363 | 0.125 | 0.101 | 0.777 | 0.981 | 0.574 | 0.238 | 0.229 | 0.346 | 0.349 | 0.344 | 0.279 | 0.806 | 0.492 | 0.627 | 0.606 | 0.481 | – |
| EPLC-272H | 1.12 | 0.982 | 0.255 | 0.0998 | 0.0968 | 0.86 | 0.709 | 0.323 | 0.0912 | 0.134 | – | 0.408 | 0.142 | 0.103 | 0.175 | 0.181 | 0.0719 | 0.077 | 0.12 | 0.0755 |
| RERF-LC-KJ | 0.993 | 0.874 | 0.416 | 0.23 | 0.414 | 0.813 | 0.887 | 0.766 | – | 0.545 | 0.846 | 0.748 | 0.336 | 0.182 | 0.696 | 0.626 | 0.33 | 0.287 | 0.345 | 0.21 |
| NCI-H1793 | 0.928 | 0.544 | 0.187 | 0.221 | 0.139 | – | – | – | – | – | 0.379 | 0.382 | 0.3 | 0.141 | 0.553 | 0.42 | 0.328 | 0.17 | 0.113 | 0.15 |
| EKVX | 0.96 | 0.814 | 0.91 | 0.35 | 0.486 | 1.04 | 1.04 | 0.731 | 0.225 | 0.563 | 0.661 | 0.604 | 0.425 | 0.224 | 0.745 | 0.836 | 0.477 | 0.363 | 0.167 | 0.271 |
| NCI-H1395 | 1.17 | 1.17 | 0.611 | 0.447 | 0.384 | – | – | – | – | – | 0.413 | 0.438 | 0.455 | 0.306 | 0.711 | 0.688 | 0.466 | 0.354 | 0.25 | 0.358 |
| NCI-H1703 | 1.38 | 1.28 | 0.509 | 0.124 | 0.0953 | 0.962 | 0.813 | 0.144 | 0.117 | 0.206 | – | – | – | – | – | – | – | – | – | – |
| NCI-H661 | – | – | – | – | – | 0.869 | 0.937 | 0.85 | 0.572 | 0.855 | 0.986 | 0.779 | 0.312 | 0.171 | 0.843 | 0.753 | 0.293 | 0.269 | 0.223 | 0.293 |
| EBC-1 | 0.36 | 0.283 | 0.123 | 0.119 | 0.153 | 0.19 | 0.204 | 0.17 | 0.169 | 0.14 | – | – | – | – | – | – | – | – | – | – |
| NCI-H1299 | 1.06 | 1.09 | 0.833 | 0.232 | 0.238 | 0.982 | 0.939 | 0.572 | 0.305 | 0.329 | – | – | – | – | – | – | – | – | – | – |
| NCI-H1648 | – | – | – | – | – | – | – | – | – | – | – | – | – | – | 0.37 | 0.523 | 0.203 | 0.267 | 0.186 | – |
| LCLC-103H | – | – | – | – | – | 0.999 | 1.11 | 0.851 | 0.523 | 0.267 | 0.466 | 0.522 | 0.341 | 0.175 | 0.808 | 0.799 | 0.327 | 0.261 | 0.199 | 0.176 |
| SW 900 | – | – | – | – | – | – | – | – | – | – | 0.545 | 0.604 | 0.5 | 0.0938 | 0.483 | 0.417 | 0.416 | 0.287 | 0.154 | 0.328 |
| IA-LM | 0.89 | 0.411 | 0.0188 | 0.0121 | 0.0246 | 0.717 | 0.395 | 0.198 | 0.0759 | 0.0777 | – | – | – | – | 0.916 | 0.803 | 0.241 | 0.0678 | 0.0714 | – |
| NCI-H1563 | – | – | – | – | – | 0.832 | 0.968 | 0.872 | 0.661 | 0.582 | 0.51 | 0.506 | 0.454 | 0.349 | – | – | – | – | – | 0.44 |
| HCC-44 | 1 | 0.913 | 0.187 | 0.121 | 0.0869 | 0.818 | 0.815 | 0.503 | 0.123 | 0.104 | – | – | – | – | 1.14 | 1.03 | 0.852 | 0.331 | 0.247 | – |
| NCI-H358 | – | – | – | – | – | 0.481 | 0.575 | 0.164 | 0.132 | 0.213 | 0.151 | 0.195 | 0.185 | 0.0726 | 0.589 | 0.541 | 0.0993 | 0.0786 | 0.0711 | 0.0783 |
| ABC-1 | – | – | – | – | – | 1.34 | 0.988 | 0.875 | 0.152 | 0.291 | 0.539 | 0.542 | 0.469 | 0.239 | 1.59 | 0.849 | 0.58 | 0.369 | 0.305 | 0.276 |
| NCI-H522 | – | – | – | – | – | – | – | – | – | – | 0.937 | 0.846 | 0.814 | 0.369 | 0.962 | 1.1 | 0.733 | 0.292 | 0.237 | 0.628 |
| NCI-H650 | – | – | – | – | – | 0.714 | 0.684 | 0.4 | 0.15 | 0.289 | 0.468 | 0.429 | 0.32 | 0.261 | 0.425 | 0.438 | 0.279 | 0.137 | 0.143 | 0.166 |
| NCI-H1792 | 0.633 | 0.627 | 0.604 | 0.188 | 0.13 | 1.05 | 0.937 | 0.752 | 0.459 | 0.0845 | 0.786 | 0.757 | 0.372 | 0.25 | – | – | – | – | – | 0.287 |
